The MIC is the lowest concentration that inhibits growth of the organism.

One compound from ChEMBL document CHEMBL5608246, “Membrane-Targeting Amphiphilic Honokiol Derivatives Containing an Oxazole Moiety as Potential Antibacterials against Methicillin-Resistant Staphylococcus aureus” (J Med Chem, 2024) can be followed below.

Data set [1] relates to Staphylococcus aureus. In words: Antibacterial activity against methicillin resistant Staphylococcus aureus M20 incubated for 16 to 18 hrs by broth dilution method. The class given is functional. The settings on record: time 16-18 hrs.
Data set [2] concerns Staphylococcus aureus. Nature of the data set: Antibacterial activity against methicillin resistant Staphylococcus aureus M22 incubated for 16 to 18 hrs by broth dilution method. The class given is functional. The note with it: time 16-18 hrs.
Data set [3] concerns Staphylococcus aureus. In words: Bactericidal activity against Staphylococcus aureus ATCC 29213 at 8 times MIC within 6 hrs by time kill assay. The class given is functional, organism-based.
Data set [4] relates to Cell membrane. Nature of the data set: Induction of membrane disruption in methicillin resistant Staphylococcus aureus 20 assessed as wrinkled membrane at 16 times MIC incubated for 4 hrs by SEM analysis. The class given is cell membranes.
Data set [5] has as its system Cell membrane. Nature of the data set: Induction of membrane disruption in methicillin resistant Staphylococcus aureus 20 at 16 ug/ml incubated for 4 hrs by DAPI/PI staining based laser confocal microscopic analysis. The settings on record: dose 16.0 µg/ml.
Data set [6] deals with Staphylococcus aureus. Nature of the data set: Effect on ABC transporter protein gene expression in methicillin resistant Staphylococcus aureus N315 at 4 ug/ml incubated for 4 hrs by RNA-sequencing analysis. The note with it: dose 4.0 µg/ml. Format: functional.
Data set [7] can be described thus: Toxicity in Kunming mouse assessed as change in white blood cell counts at 20 mg/kg, sc measured after 24 hrs. The note with it: in vivo. The class given is organism-based.
Data set [8] is described as follows: Toxicity in Kunming mouse skin abscess model infected with methicillin resistant Staphylococcus aureus assessed as lung damage at 5 to 10 mg/kg, sc measured after 2 hrs by H and E staining based assay. Format: organism-based. The settings on record: in vivo, dose 5-10 mg/kg.
For data set [9], the system named is Cell membrane. Nature of the data set: Induction of membrane disruption in methicillin resistant Staphylococcus aureus 20 assessed as viable cells with intact membrane at 64 ug/ml incubated for 2 hrs by SYTO9/PI staining based flow cytometry analysis (reference value: 98.7%). Format: cell membranes. The note with it: dose 64.0 µg/ml. On the technique in general: Flow cytometry measures light scatter and fluorescence of single cells or particles in a stream.

Each structure is given as a SMILES string. Active and inactive are the calls of the source. The calls are words filed in the database; no cut-off is given here.

`C=CCc1cc(-c2ccc(OCCC[N+](C)(C)CC(=O)NCCCC)c(CC=C)c2)c2oc(-c3c(Cl)cccc3Cl)nc2c1.[Br-]`: the MIC in the data set on Staphylococcus aureus [1] and in the data set on Staphylococcus aureus [2] was 2 µg/mL throughout. In addition, the outcome in the data set on Staphylococcus aureus [3], in the data set on Cell membrane [4], with Cell membrane [5] and in the data set with Staphylococcus aureus [6] was Active. Moreover, the Activity result in data set [7] is “Non-Toxic”; in [8], “Non-Toxic”; with Cell membrane [9], 0.28%.
